# Reference: patent publication US20040121965A1, “Method of treating resistant tumors” (Wyeth Holdings Corporation, priority 2002, published 2004)
# Read-outs that look alike come from different tables or passages of the source. Square brackets hold non-standard residues; d marks the D form. Peptide text beside a SMILES is read from it. * marks the point of attachment. X1 = COC1=CC(=O)N(C(=O)[C@@H](O*)C(C)C)[C@H]1Cc1ccccc1; NMe2Val = CC(C)[C@@H](C(=O)*)N(C)C; NMeV = CN[C@H](C(=O)O)C(C)C
# How the values were obtained:
# [1] = tested on: KB-3-1; experiment: Cell survival assay (SRB), KB-3-1; format: cell-based, human
# Summary of the method: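 Cells were exposed to serially diluted compound in duplicate for 3 days. Survival was read as protein content by SRB (TCA fixation 1 hr at 4 °C, 0.04% SRB stain, dissolved in 10 mM Tris, absorbance). KB-3-1 was grown in 20% FCS. IC50 is the concentration giving 50% growth inhibition.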
# [2] = tested on: Human Melanoma Carcinoma Lox; details: staged LOX xenograft; at MTD ('<': MTD not achieved); days 11-15
# Method: 2.4. Growth of Tumors in Nude Mice. […] In these experiments, xenografts are implanted subcutaneously into the flanks of nude mice. […] Relative tumor mass compared to controls are assessed during the 21-day post-staging period.
# Groups of 5 female nu/nu mice are injected with 1.5×10^6 KB-3-1 (A) or Lox cells (B). […] Relative tumor growth is determined during the experiment and % T/C calculated. Statistical analyses are Student's t-test of treated time points vs. vehicle (*, P<0.05; **, P<0.01)
# [3] = tested on: KB-8-5 (MDR1+); experiment: Cell survival assay (SRB), KB-8-5 (MDR1+); details: for IC50: Homo sapiens
# [4] = tested on: KB-V1 (MDR1++); experiment: Cell survival assay (SRB), KB-V1 (MDR1++); details: for IC50: Homo sapiens
# [5] = tested on: KB-HTI-4.0; experiment: Cell survival assay, KB-3-1 line made resistant to Example 129 (KB-HTI-4.0); format: cell-based, human
# Description: Cells lines with previously known mechanisms of resistance. […] Res. 8: 207-218,1996); KB-3-1 (parental derived from an epidermoid carcinoma), KB-8.5, KB-V1 (Akiyama S-I, Fojo A, Hanover J A, Pastan I, Gottesman M M. Isolation and genetic characterization of human KB cell lines resistant to multiple drugs. Somatic Cell Mol. Gen., 11: 117-126,1985; Shen D-W, Cardarelli C, Hwang J, Cornwell M, Richert N, Ishii S, Pastan I, Gottesman MM. […] J. Biol. Chem., 261: 7762-7770, 1986); and HL-60 (parental derived from human leukemia) and HL60/AR (McGrath T., Center M. S. Adriamycin resistance in HL60 cells in the absence of detectable P-glycoprotein. Biochem. Res. Commun., 145:1171-1176,1987); A549 and A549.EpoB40 (He L., Yang C.-P.H., Horwitz S. B. Mutations in p-tubulin map to domains involved in regulation of microtubule stability in epothilone-resistant cell lines. Molecular Cancer Therapeutics. 1: 3-10, 2001). HCT-15 human colon carcinoma and DLD-1 human colon carcinoma are obtained from American Tissue Culture Collection. The MX-1W carcinoma is a Wyeth variant orginally obtained as MX-1 breast carcinoma from the National Cancer Institute. Cell lines selected for resistance to Representative Example 129. KB-3-1 cells are selected for resistance to Example 129 by chronically exposing cells to increasing concentrations of Example 129.
# 2.2. Cell Survival Assay: Standard Pharmacological Test Procedure. The concentration of candidate inhibitor required to inhibit 50% of cell growth (IC50) is done according to previously reported methods. […] Compounds are serially diluted into media as 2× stocks and 100 μl added to cells in duplicate. Compounds are incubated with cells for 3 days. At the end of the incubation period the sulforhodamine B (SRB) assay, which measures protein content as an assessment of cell survival, is performed as described previously (Skehan P, Storeng R, Scudiero D, Monks A, McMahon J, Vistica D, Warren J T, Bokesch H, Kenney S, Boyd MR. New calorimetric cytotoxicity assay for anticancer-drug screening. J Natl Cancer Inst 1990 Jul 4;82(13):1107-12) with some modification as follows. For KB-3-1 cells with 20% FCS, media is gently decanted and replaced with 200 μl of serum-free media mixed with cold 50% TCA for a final concentration of 10% TCA. The plates are incubated for 1 hr at 4° C., followed by washing 5 times in cold distilled water, then air dried overnight. The fixed cells are stained for 10 min with 80 μl of 0.04% SRB solution prepared in 1% glacial acetic acid. Stain is discarded and plates washed 5 times in 1% glacial acetic acid, then air-dried until completely dry. Stained cell product is dissolved in 150 μl of 10 mM Trizma Base and placed on a shaker for 20 minutes until fully dissolved. Absorbance is read on a Victor V multi-label plate reader (Perkin Elmer, Gaithersburg, Md.).
# Cells are selected for resistance to Example 129 to understand the frequency and mechanistic basis of resistance.
# [6] = Homo sapiens, KB 3-1, 72 h, amount of drug needed to kill 50% of cells after three days continuous exposure, Table 11, read-out: IC50 in parental cell line KB-3-1
# [7] = Homo sapiens, KB 3-1, KB-3-1 cells (paclitaxel-sensitive parent), read-out: In vitro IC50 (nM) KB-3-1
# [8] = MDR1, read-out: In vitro IC50 (nM) KB85
# [9] = read-out: In vitro IC50 (nM) KBV1
# [10] = KB-3-1 parental, Table 8, read-out: KB-3-1 IC50
# [11] = KB-3-1 line made resistant to Example 129, Table 8, read-out: KB-HTI-4.0 IC50
# [12] = Homo sapiens, KB-3-1 parental, Table 8, read-out: KB-3-1 IC50
# [13] = Homo sapiens, KB-3-1 line made resistant to Example 129, Table 8, read-out: KB-HTI-4.0 IC50
Compound,"IC50 [1, 6] [nM]","IC50 [1, 7] [nM]",Activity in nude mice animal model (% T/C @ MTD on days 11-15) LOX [2],Ratio KB85/KB [3],"IC50 [3, 8] [nM]",Ratio KBV1/KB [4],"IC50 [4, 9] [nM]",(RR) relative resistance vs. parental cells ([5]; KB-HTI-4.0 vs KB-3-1),"IC50 [1, 12] [nM]","IC50 [5, 13] [nM]",also measured
"CN[C@H](C(=O)N[C@H](C(=O)N(C)[C@H](/C=C(\C)C(=O)O)C(C)C)C(C)(C)C)C(C)(C)C1CCCCC1 [Example 70, 3-Cyclohexyl-N-methyl-L-valyl-N-1-[(1S,2E)-3-carboxy-1-isopropyl-2-butenyl]-N-1,3-dimethyl-L-valinamide]",3.7,3.7,4%,1.5,5.6,40.9,151,,,,
"CN[C@H](C(=O)N[C@H](C(=O)N(C)[C@H](/C=C(\C)C(=O)O)C(C)C)C(C)(C)SC)C(C)(C)c1ccccc1 [Example 80, (E,4S)-2,5-dimethyl-4-{methyl[(2R)-3-methyl-2-{[(2S)-3-methyl-2-(methylamino)-3-phenylbutanoyl]amino}-3-(methylsulfanyl)butanoyl]amino}-2-hexenoic Acid]",2.7,2.7,8^4%,2.6,7.1,112.2,303,,,,
"C/C(=C\[C@H](C(C)C)N(C)C(=O)[C@@H](NC(=O)[C@@H](N(C)C)C(C)(C)c1ccccc1)C(C)(C)C)C(=O)O [Example 52, N,N,β, β-Tetramethyl-L-phenylalanyl-N^1-[(1S,2E)-3-carboxy-1-isopropyl-2-butenyl]-N^1,3-dimethyl-L-valinamide]",1.6,1.55,1%,2.4,3.7,74.6,116,,,,
"CN[C@H](C(=O)N[C@H](C(=O)N(C)[C@H](/C=C(\C)C(=O)O)C(C)C)C(C)(C)C)C(C)(C)c1ccc(OC)cc1 [Example 57, N,O,β,β-tetramethyl-L-tyrosyl-N^1-[(1S,2E)-3-carboxy-1-isopropyl-2-butenyl]-N^1,3-dimethyl-L-valinamide]",1.4,1.4,<1^4%,2.9,4.1,102.0,142,,,,
"CC[C@H](C)[C@H](NC(=O)[C@@H](NC)C(C)(C)c1ccccc1)C(=O)N(C)[C@H](/C=C(\C)C(=O)O)C(C)C.O=C(O)C(F)(F)F [Example 106, N,β,β-trimethyl-L-phenylalanyl-N^1-[(1S,2E)-3-carboxy-1-isopropyl-2-butenyl]-N^1-methyl-L-isoleucinamide Trifluoroacetic Acid]",15.6,16,<47^4%,2.2,34,42.3,660,,,,
COC1=CC(=O)N(C(=O)[C@@H](OC(=O)[C@@H]2CCCN2C(=O)[C@@H]2CCCN2C(=O)[C@H](C(C)C)N(C)C(=O)[C@@H](NC(=O)[C@H](C(C)C)N(C)C)C(C)C)C(C)C)[C@H]1Cc1ccccc1 [Dolastatin −15] (NMe2Val-V[NMeV]PP-X1),,,,,,,,(12),,,"IC50 [1, 10]: 0.04 ± 0.05 nM; IC50 [5, 11]: 0.49 ± 0.14 nM"
C=C(C)[C@@H]1NC(=O)[C@@H](NC)[C@@H](O)c2cc(Cl)c(O)c(c2)O[C@](C)(CC)[C@@H](C(=O)N2CC=C[C@H]2C(=O)N/C(C(=O)N/C(=C/C(=O)O)C(=O)O)=C(\C)CC)NC1=O [Phomopsin A],,,,,,,,(5),,,"IC50 [1, 10]: 671 ± 55 nM; IC50 [5, 11]: 3530 ± 2990 nM"
"CC[C@@]1(O)C(=O)OCc2c1cc1n(c2=O)Cc2cc3c(CN(C)C)c(O)ccc3nc2-1 [Topotecan, topotecan]",,,,,,,,(57),18.1 ± 2.98,1030 ± 541,
C(=N\NC1=NCCN1)/c1c2ccccc2c(/C=N/NC2=NCCN2)c2ccccc12 [Bisantrene],,,,,,,,(3),119 ± 47,299 ± 91,
"CC[C@@]1(O)C(=O)OCc2c1cc1n(c2=O)Cc2cc3ccccc3nc2-1 [Camptothecin, camptothecin]",,,,,,,,(23),14.9 ± 6.11,335 ± 157,
"C=CC(C)(C)[C@H](NC(=O)[C@@H](NC)C(C)(C)c1ccccc1)C(=O)N(C)[C@H](/C=C(\C)C(=O)O)C(C)C [Example 120, (2E,4S)4-[{(2S)-3,3-dimethyl-2-[(N,β,β-trimethyl-L-phenylalanyl)amino]4-pentenoyl}(methyl)amino]-2,5-dimethyl-2-hexenoic Acid]",3.5,,20%,,,,,,,,
COc1cc2cc(c1Cl)N(C)C(=O)C[C@H](OC(=O)[C@H](C)N(C)C(C)=O)[C@]1(C)O[C@H]1[C@H](C)[C@@H]1C[C@@](O)(NC(=O)O1)[C@H](OC)/C=C/C=C(\C)C2 [Maytansine],,,,,,,,(14),0.06,0.84 ± 0.19,
dolastatin,,,,,,,,,,,resistance of KB-3-1-derived cell lines selected with Example 129 ([5]; vs KB-3-1): 28 fold
CO[C@]12C=C[C@](C)(O1)[C@@H](OC(=O)/C=C/c1cn(C)cn1)C[C@H]1C(C)=CC[C@H](C(C)C)[C@H]1/C=C\2CO[C@@H]1OC[C@@H](O)[C@@H](O)[C@@H]1OC(C)=O [Eleutherobin],,,,,,,,,,,"IC50 ([1]; Homo sapiens, KB 3-1, read-out: KB-3-1 IC50, nM): 17.4 ± 1.63 nM; (RR) relative resistance vs. parental cells [5]: (1); IC50 ([5]; Homo sapiens, KB 3-1, read-out: KB-HTI-4.0 IC50, nM): 21.3 ± 4.4 nM"
"CCC1=C[C@@H]2CN(C1)Cc1c([nH]c3ccccc13)[C@@](C(=O)OC)(c1cc3c(cc1OC)N(C)[C@H]1[C@@](O)(C(=O)OC)[C@H](OC(C)=O)[C@]4(CC)C=CCN5CC[C@]31[C@@H]54)C2 [vinorelbine, reference compound]",,,,,,,,(7),1.22 ± 0.33,8.64 ± 2.94,"IC50 ([1]; Homo sapiens, KB-3-1 parental, Table 3, read-out: KB-3-1 IC50, nM (N)): 3.5 nM; IC50 ([3]; MDR1, read-out: KB-8-5 (MDR1+) IC50, nM (N)): 132 nM; RR, relative resistance ([3]; IC50 KB-8-5 / IC50 KB-3-1, Table 3): 38; resistance of KB-8-5 cells ([3]; KB-8-5 (KB-85) vs KB-3-1, in vitro): 38 fold; IC50 ([4]; read-out: KB-V1 (MDR1++) IC50, nM (N)): > 3000 nM; RR, relative resistance ([4]; IC50 KB-V1 / IC50 KB-3-1, Table 3): >857"
CO[C@@H](/C(C)=C/C=C/C(C)=C/c1coc(C)n1)[C@@H](C)[C@@H]1C[C@H](O)[C@@]2(C)O[C@@H]2/C=C/[C@@H](C)[C@H]2C[C@H](CC(=O)O2)C[C@@H]2O[C@H]2C(=O)O1 [Rhizoxin],,,,,,,,(11),,98.4 ± 37.6,"IC50 ([1]; Homo sapiens, KB 3-1, KB-3-1 parental, Table 8, read-out: KB-3-1 IC50): 9.13 ± 2.17 nM"
